Assay results published in patent US20020183725A1, “Masking Agent” (priority 2001, published 2002).

Tests used:
[1] = Light absorption study of masking solutions with laser radiation (Beer's law, transmission vs. concentration); assay type: physicochemical; conditions: 213 nm laser wavelength; reciprocal of absorption coefficient
Description: Light absorbent studies were carried out using 213 nm radiation produced as the fifth harmonic wavelength of the fundamental 1064 nm wavelength of an Nd:YAG laser, with a pulse duration of 6 ns and repetition rate of 20 Hz. The pulse energy of the laser was monitored using an energy detector and a storage oscilloscope. The energy of the laser was obtained from the amplitude of the voltage signal delivered from the detector.
Beer's Law states that if light is passed through solution, energy is attenuated according to the formula:
Where: αM is the molar absorption coefficient in M^−1 cm^−1
C is the concentration in moles per liter
Ef and Ei are the final and initial pulse energies respectively.
In order to determine the amount of light absorbed (A) by the solution the molar absorption co-efficient is found from the gradient of the log-linear plot of Beer's law.
The absorption coefficient (α cm^−1) can then be calculated by multiplying the molar absorption coefficient by the concentration. Once the absorption coefficient is obtained, the penetration depth can be calculated from the reciprocal of this value.
Readings were taken for BSS maintaining the same dilutions. […] Five random readings were taken for each dilution and the mean calculated, in order to reduce the error from inter-pulse variations. […]

[2] = Fluorescence under the incident laser beam; assay type: physicochemical; conditions: laser beam incident on it
Description: This would be a useful property in PTK.

Penetration Depth [1]: 50.3 μm
Compound: CC1COc2c(N3CCN(C)CC3)c(F)cc3c(=O)c(C(=O)O)cn1c23 (centres unmarked) [Ofloxacin, 9-fluoro-2,3-dihydro-3-methyl-10-(4-methyl-1-piperazinyl)-7-oxo-7H-pyrido[1,2,3-de][1,4]benzoxazine-6-carboxylic acid]
Fluorescence when the laser beam is incident [2]: fluoresces
